From patent publication US9675712B2, “pH sensitive fluorescent polydiacetylene liposome and delivery vehicle comprising same” (priority 2012, dated 2017) come the findings set out here.

For this assay, the system named is E. coli 0-157(ATCC 43894). Put plainly: Anti-bacterial analysis of drug release in vitro (plaque / growth inhibition area on agar plate). It is filed as cell-based. The conditions noted are these: dish (c): standard solution in PBS; 20 μl, 37° C. overnight. On the procedure:
In order to prepare an LB broth and an agar medium, 12.5 g of the LB broth and 7.5 g of the plant agar were transferred to 1 L sterile flask. The components were dissolved in 500 mL of distilled water or deionized water, and flask was tightly covered with an aluminum foil, a plug or a cap similar thereto. The mixture was heated until a boiling point was reached to dissolve the agar, and sterilized by autoclave at 121-124° C. for 15 mins, and then waited until the autoclave was cooled and a pressure was 0. The medium was removed from the autoclave and cooled to room temperature. When the LB agar was cooled to a temperature (approximately 45° C.) which is still considered hot by touch, 0.5 cm or ¼ layer of agar was poured into the Petri dish. It corresponds to approximately 20 to 25 mL volumes of the agar. The Petri dish was positioned on a flat surface until the agar was completely solidified for 30 to 40 mins. The Petri dish containing the solid agar was stored at 4° C.
300 μl of bacteria (E. coli) was added to 3.0 mL of the LB broth, and the culture fluid was strongly shaken. Then, the culture fluid was cultured in an incubator shaking the bacteria at 37° C. overnight. […]
First, a growth inhibition area (plaque) will be shown in the fusible bacterial habitat in the case in which the drug is smoothly released from the liposome. […] Third, the analysis method needs to be quantitative.

For the compound `CC1(C)S[C@@H]2[C@H](NC(=O)[C@H](N)c3ccccc3)C(=O)N2[C@H]1C(=O)O` [ampicillin standard solution, ampicillin], the growth inhibition area result is “growth inhibition area was generally observed”.
